Experimental data reported in ChEMBL document CHEMBL1201862, “PubChem BioAssay data set” (2004).
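How tested: cells in 96-well plates exposed to compound for 48 hours at five concentrations. Here, GI50 denotes the concentration required for 50% inhibition of growth.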 Activity calls are given as the source filed them. Rule as the data show it: active = GI50 up to about 1.1 µM and inactive = higher.

Experiments:
Assay in all cases: growth of human tumour cells (NCI), 48 h
[1] = test system: NCI/ADR-RES
[2] = test system: MDA-MB-231
[3] = test system: BT-549
[4] = test system: EKVX
[5] = test system: LOX IMVI
[6] = test system: OVCAR-3
[7] = test system: MDA-N
[8] = test system: Malme-3M
[9] = test system: K562
[10] = test system: SNB-75
[11] = test system: T47D
[12] = test system: IGROV-1
[13] = test system: PC-3
[14] = test system: MCF7
[15] = test system: 786-0
[16] = test system: SK-MEL-28
[17] = test system: OVCAR-5
[18] = test system: SK-MEL-5
[19] = test system: U-251
[20] = test system: M14
[21] = test system: NCI-H23
[22] = test system: NCI-H522
[23] = test system: Hs-578T
[24] = test system: UACC-257
[25] = test system: TK-10
[26] = test system: KM12
[27] = test system: MOLT-4
[28] = test system: SW-620
[29] = test system: SK-MEL-2
[30] = test system: A549
[31] = test system: NCI-H460
[32] = test system: OVCAR-4
[33] = test system: COLO 205
[34] = test system: A498
[35] = test system: UACC-62
[36] = test system: HCT-116
[37] = test system: RPMI-8226
[38] = test system: SF-295
[39] = test system: SF-539
[40] = test system: HT-29
[41] = test system: OVCAR-8
[42] = test system: SNB-19
[43] = test system: NCI-H226
[44] = test system: DU-145
[45] = test system: CAKI-1
[46] = test system: HCT-15
[47] = test system: SN12C
[48] = test system: UO-31
[49] = test system: RXF 393
[50] = test system: SR
[51] = test system: ACHN
[52] = test system: HOP-92
[53] = test system: SF-268
[54] = test system: MDA-MB-435
[55] = test system: HL-60
[56] = test system: SK-OV-3
[57] = test system: CCRF-CEM
[58] = test system: HOP-62
[59] = test system: HCC 2998

## O=C(O)C(Cc1ccccc1-c1ccccc1)C(=O)O
[1]
  GI50: > 100 µM (inactive)
[2]
  GI50: > 100 µM (inactive)
[3]
  GI50: > 100 µM (inactive)
[4]
  GI50: > 100 µM (inactive)
[5]
  GI50: > 100 µM (inactive)
[6]
  GI50: 97.1 µM (inactive)
[7]
  GI50: > 100 µM (inactive)
[8]
  GI50: > 100 µM (inactive)
[9]
  GI50: > 100 µM (inactive)
[10]
  GI50: > 100 µM (inactive)
[11]
  GI50: > 100 µM (inactive)
[12]
  GI50: > 100 µM (inactive)
[13]
  GI50: > 100 µM (inactive)
[14]
  GI50: > 100 µM (inactive)
[15]
  GI50: > 100 µM (inactive)
[16]
  GI50: > 100 µM (inactive)
[17]
  GI50: > 100 µM (inactive)
[18]
  GI50: > 100 µM (inactive)
[19]
  GI50: > 100 µM (inactive)
[20]
  GI50: > 100 µM (inactive)
[21]
  GI50: > 100 µM (inactive)
[22]
  GI50: > 100 µM (inactive)
[23]
  GI50: > 100 µM (inactive)
[24]
  GI50: > 100 µM (inactive)
[25]
  GI50: > 100 µM (inactive)
[26]
  GI50: > 100 µM (inactive)
[27]
  GI50: > 100 µM (inactive)
[28]
  GI50: > 100 µM (inactive)
[29]
  GI50: > 100 µM (inactive)
[30]
  GI50: > 100 µM (inactive)
[31]
  GI50: > 100 µM (inactive)
[32]
  GI50: > 100 µM (inactive)
[33]
  GI50: > 100 µM (inactive)
[34]
  GI50: > 100 µM (inactive)
[35]
  GI50: > 100 µM (inactive)
[36]
  GI50: > 100 µM (inactive)
[37]
  GI50: > 100 µM (inactive)
[38]
  GI50: 86.7 µM (inactive)
[39]
  GI50: > 100 µM (inactive)
[40]
  GI50: > 100 µM (inactive)
[41]
  GI50: > 100 µM (inactive)
[42]
  GI50: > 100 µM (inactive)
[43]
  GI50: > 100 µM (inactive)
[44]
  GI50: > 100 µM (inactive)
[45]
  GI50: > 100 µM (inactive)
[46]
  GI50: > 100 µM
[47]
  GI50: > 100 µM (inactive)
[48]
  GI50: > 100 µM (inactive)
[49]
  GI50: > 100 µM (inactive)
[50]
  GI50: > 100 µM (inactive)
[51]
  GI50: > 100 µM (inactive)
[52]
  GI50: > 100 µM (inactive)
[53]
  GI50: > 100 µM (inactive)
[54]
  GI50: > 100 µM (inactive)

## O=c1n(CCO)nc2n1CCCN2
[2]
  GI50: > 100 µM (inactive)
[3]
  GI50: > 100 µM (inactive)
[4]
  GI50: > 100 µM (inactive)
[5]
  GI50: > 100 µM (inactive)
[6]
  GI50: > 100 µM (inactive)
[7]
  GI50: > 100 µM (inactive)
[8]
  GI50: > 100 µM (inactive)
[9]
  GI50: > 100 µM (inactive)
[10]
  GI50: > 100 µM (inactive)
[55]
  GI50: > 100 µM (inactive)
[11]
  GI50: > 100 µM (inactive)
[12]
  GI50: > 100 µM (inactive)
[13]
  GI50: > 100 µM (inactive)
[14]
  GI50: > 100 µM (inactive)
[15]
  GI50: > 100 µM (inactive)
[16]
  GI50: > 100 µM (inactive)
[17]
  GI50: > 100 µM (inactive)
[56]
  GI50: > 100 µM (inactive)
[18]
  GI50: > 100 µM (inactive)
[19]
  GI50: > 100 µM (inactive)
[20]
  GI50: > 100 µM (inactive)
[21]
  GI50: > 100 µM (inactive)
[57]
  GI50: > 100 µM (inactive)
[23]
  GI50: > 100 µM (inactive)
[25]
  GI50: > 100 µM (inactive)
[26]
  GI50: > 100 µM (inactive)
[27]
  GI50: > 100 µM (inactive)
[28]
  GI50: > 100 µM (inactive)
[29]
  GI50: > 100 µM (inactive)
[30]
  GI50: > 100 µM (inactive)
[31]
  GI50: > 100 µM (inactive)
[32]
  GI50: > 100 µM (inactive)
[58]
  GI50: > 100 µM (inactive)
[33]
  GI50: > 100 µM (inactive)
[35]
  GI50: > 100 µM (inactive)
[36]
  GI50: > 100 µM (inactive)
[37]
  GI50: > 100 µM (inactive)
[38]
  GI50: > 100 µM (inactive)
[39]
  GI50: > 100 µM (inactive)
[40]
  GI50: > 100 µM (inactive)
[41]
  GI50: > 100 µM (inactive)
[42]
  GI50: > 100 µM (inactive)
[43]
  GI50: > 100 µM (inactive)
[44]
  GI50: > 100 µM (inactive)
[46]
  GI50: > 100 µM
[47]
  GI50: > 100 µM (inactive)
[59]
  GI50: > 100 µM (inactive)
[48]
  GI50: > 100 µM (inactive)
[49]
  GI50: > 100 µM (inactive)
[50]
  GI50: > 100 µM (inactive)
[51]
  GI50: > 100 µM (inactive)
[52]
  GI50: > 100 µM (inactive)
[53]
  GI50: > 100 µM (inactive)
[54]
  GI50: > 100 µM (inactive)

## CC(CNC(N)=O)NC(N)=O (stereo unspecified)
[1]
  GI50: > 100 µM (inactive)
[2]
  GI50: > 100 µM (inactive)
[3]
  GI50: > 100 µM (inactive)
[4]
  GI50: > 100 µM (inactive)
[5]
  GI50: > 100 µM (inactive)
[6]
  GI50: > 100 µM (inactive)
[7]
  GI50: > 100 µM (inactive)
[8]
  GI50: > 100 µM (inactive)
[9]
  GI50: > 100 µM (inactive)
[10]
  GI50: > 100 µM (inactive)
[55]
  GI50: > 100 µM (inactive)
[11]
  GI50: > 100 µM (inactive)
[12]
  GI50: > 100 µM (inactive)
[13]
  GI50: > 100 µM (inactive)
[14]
  GI50: > 100 µM (inactive)
[15]
  GI50: > 100 µM (inactive)
[16]
  GI50: > 100 µM (inactive)
[17]
  GI50: > 100 µM (inactive)
[56]
  GI50: > 100 µM (inactive)
[18]
  GI50: > 100 µM (inactive)
[19]
  GI50: > 100 µM (inactive)
[20]
  GI50: > 100 µM (inactive)
[21]
  GI50: > 100 µM (inactive)
[22]
  GI50: > 100 µM (inactive)
[57]
  GI50: > 100 µM (inactive)
[23]
  GI50: > 100 µM (inactive)
[24]
  GI50: > 100 µM (inactive)
[25]
  GI50: > 100 µM (inactive)
[26]
  GI50: > 100 µM (inactive)
[27]
  GI50: > 100 µM (inactive)
[28]
  GI50: > 100 µM (inactive)
[29]
  GI50: > 100 µM (inactive)
[30]
  GI50: > 100 µM (inactive)
[31]
  GI50: > 100 µM (inactive)
[32]
  GI50: > 100 µM (inactive)
[58]
  GI50: > 100 µM (inactive)
[33]
  GI50: > 100 µM (inactive)
[34]
  GI50: > 100 µM (inactive)
[35]
  GI50: > 100 µM (inactive)
[36]
  GI50: > 100 µM (inactive)
[37]
  GI50: > 100 µM (inactive)
[38]
  GI50: > 100 µM (inactive)
[39]
  GI50: > 100 µM (inactive)
[40]
  GI50: > 100 µM (inactive)
[41]
  GI50: > 100 µM (inactive)
[42]
  GI50: > 100 µM (inactive)
[43]
  GI50: > 100 µM (inactive)
[44]
  GI50: > 100 µM (inactive)
[45]
  GI50: > 100 µM (inactive)
[46]
  GI50: > 100 µM
[47]
  GI50: > 100 µM (inactive)
[59]
  GI50: > 100 µM (inactive)
[48]
  GI50: > 100 µM (inactive)
[49]
  GI50: > 100 µM (inactive)
[51]
  GI50: > 100 µM (inactive)
[52]
  GI50: > 100 µM (inactive)
[53]
  GI50: > 100 µM (inactive)
[54]
  GI50: > 100 µM (inactive)
